From patent publication US20060263802A1 (priority 2003, published 2006)

Assays:
Type in all cases: binding
[1] = test system: human monoclonal antibody CRJB
[2] = test system: human monoclonal antibody CR57
[3] = test system: human monoclonal antibody CRJA
[4] = test system: human monoclonal antibody CRJB; remark: listed apart in the source
[5] = test system: human monoclonal antibody CR57; remark: listed apart in the source
[6] = test system: human monoclonal antibody CRJA; remark: listed apart in the source

Sequence	Binding of human monoclonal antibody CRJB to linear peptide (PEPSCAN-ELISA signal) [1]	Binding of human monoclonal antibody CR57 to linear peptide (PEPSCAN-ELISA signal) [2]	Binding of human monoclonal antibody CRJA to linear peptide (PEPSCAN-ELISA signal) [3]	Binding of CRJB to looped/cyclic peptide (PEPSCAN-ELISA signal) [4]	Binding of CR57 to looped/cyclic peptide (PEPSCAN-ELISA signal) [5]	Binding of CRJA to looped/cyclic peptide (PEPSCAN-ELISA signal) [6]	Binding of CRJB to linear peptide (PEPSCAN-ELISA signal) [1]	Binding of CR57 to linear peptide (PEPSCAN-ELISA signal) [2]	Binding of CRJA to linear peptide (PEPSCAN-ELISA signal) [3]	Binding of CRJB (10 μg/ml) to looped/cyclic peptide (PEPSCAN-ELISA) [4]	Binding of CR57 (10 μg/ml) to looped/cyclic peptide (PEPSCAN-ELISA) [5]	Binding of CRJA (10 μg/ml) to looped/cyclic peptide (PEPSCAN-ELISA) [6]	Binding of CRJB (10 μg/ml) to looped/cyclic peptide (PEPSCAN-ELISA signal) [4]	Binding of CR57 (10 μg/ml) to looped/cyclic peptide (PEPSCAN-ELISA signal) [5]	Binding of CRJA (10 μg/ml) to looped/cyclic peptide (PEPSCAN-ELISA signal) [6]	binding of antibody CRJA to looped/cyclic peptide (PEPSCAN OD) [6]
LADPSTVFKDGDEAE	116	68	86	90	134	90										
LRLMDGTWVAMQTSN							114	103	96	72	98	92				
SPSVADLDPYDRSLH							114	59	72				63	76	51	
NYTNFVGYVTTTFKR							114	49	97				88	58	85	
YILAIKMNGFTCTGV							107	47	45				49	55	45	
SHLRKLVPGFGKAYT							132	113	118	103	143	160				
ILPSKGCLRVGGRCH							113	79	112	91	105	97				
YRWLRTVKTTKESLV							117	46	68				70	69	58	
NWKMAGDPRYEESLH							101	58	69				78	94	93	
RKLVPGFGKAYTIFN							115	47	48	79	52	44				
GFGKAYTIFNKTLME							123	78	98	83	94	86				
YCSTNHDYTIWMPEN							92	47	76				71	65	468	clearly bound
TNSRGKRASKGSETC							108	68	89				104	107	104	
GPDGNVLIPEMQSSL							154	86	91	100	141	112				
ECLDALESIMTTKSV							112	91	103	90	96	110				
VAMQTSNETKWCPPD							104	86	97	66	45	90				
VRKREECLDALESIM							181	58	111	66	105	101				
AENYTNFVGYVTTTF							106	66	74				68	58	46	
LHNPYPDYRWLRTVK							106	79	86				93	99	93	
RTWNEILPSKGCLRV							127	120	97	93	107	102				
KSLKGACKLKLCGVL							113	129	91	97	106	113				
LMDGTWVAMQTSNET							106	96	102	76	106	92				
PSGKCSGVAVSSTYC							112	56	106				48	58	73	
TVFKDGDEAEDFVEV	124	107	92	90	111	110										
